Data from patent publication US20150182482A1, “EPROTIROME FOR USE IN THE PREVENTION AND/OR TREATMENT OF HAIR DISORDERS AND COMPOSITIONS THEREOF” (DR. AUGUST WOLFF GMBH & CO. KG ARZNEIMITTEL, priority 2012, published 2015).
“Also recorded” adds a separate entry of the source. Like-named read-outs stand apart in the source and are kept apart here. Values belong to the compound of their own block, whether it stands above or below them.

Tests used:
[1] = tested on: human scalp hair follicles; experiment: Hair shaft elongation in human hair follicle organ culture (Philpott model); type: cell-based
Experimental: (§1) Normal human scalp skin was obtained from women undergoing routine face-lift surgery after informed consent.
(§2) Mircodissected anagen VI hair follicles in 3 or 4 groups (3 HFs/well) were cultured at 6 days in a 24-well plate with 500 μl Williams E medium (Biochrom) supplemented with 100 IU/ml penicillin, 10 μg/ml streptomycin (Gibco), 10 μg/ml insulin (Sigma), 10 ng/ml hydrocortisone (Sigma) and 2 mmol/1 L-glutamine (Invitrogen).
Hair shaft length measurements of HFs were performed every second day on individual HFs using a Zeiss inverted binocular microscope with an eyepiece measuring graticule.

[2] = tested on: human scalp hair follicles; experiment: HF cycle staging in human hair follicle organ culture; type: cell-based; details: for hair cycle staging, macroscopic and microscopic, overall comparison: summary of the examples
Experimental: as §1
(§3) Test system: Philpott model (Philpott et al., J. Cell. Mol. Life Sci., 1990, 97: 463-471)
as §2
(§4) Eprotirome, TRIAC, PF-277343 (1 pM, 100 pM) or vehicle were administered once for each change of medium (i.e. every 48 h).
(§5) Anagen HFs and HFs were immediately embedded in Shandon Cryomatrix and snap frozen in liquid nitrogen. Six longitudinal sections of HFs were processed for immunohistological stainings.
HF cycle staging was carried out according to defined morphological criteria, and the percentage of HFs in anagen and early, mid, or late catagen was determined.

[3] = tested on: human scalp hair follicles; experiment: Hair pigmentation, quantitative Masson-Fontana melanin staining of cultured hair follicles; type: cell-based; details: for melanin content, overall comparison: summary of the examples
Experimental: as §1, §3, §2, §4, §5
For histochemical visualization of melanin, Masson-Fontana staining was performed on frozen sections. Melanin was stained as brown dots and the degree of pigmentation was assessed by quantitative Masson-Fontana as described (Ito et al., Br. J. Dermatol, 2005, 152: 623-631). This method is a very sensitive and reliable indicator of changes in melanin synthesis, as shown by standard tyrosinase expression and enzyme activity assays (Kauser et al, FASEB J. 2006, 20:882-95). Staining intensity was analyzed in a defined reference region of the HF pigmentary unit and, using the ImageJ software (National Institute of Health).

[4] = tested on: tyrosinase activity of hair follicles; experiment: Tyrosinase activity of cultured hair follicles; type: cell-based, human
Experimental: as §1, §3, §2, §4, §5

[5] = tested on: hair matrix keratinocytes; experiment: Ki-67/TUNEL double staining, proliferation and apoptosis measurements; type: cell-based, human
Experimental: as §1, §2, §5
To evaluate apoptotic cells in co-localization with a proliferation marker Ki-67, a Ki-67/terminal dUTP nick-end labelling (TUNEL) double-staining method was used. […] TUNEL-positive cells were visualized by an antidigoxigenin fluorescein isothiocyanate-conjugated antibody (ApopTag kit), whereas Ki-67 was detected by a rhodamine-labelled goat antimouse antibody (Jackson ImmunoResearch, West Grove, Pa.). Negative controls were performed by omitting terminal deoxynucleotidyl transferase and the Ki-67 antibody. Counterstaining was performed with 4′,6-diamidino-2-phenylindole (DAPI) (Roche Molecular Biochemicals GmbH, Mannheim, Germany). Quantitative immunohistomorphometry was performed; Ki-67-, TUNEL-, or DAPI-positive cells were counted in a previously defined reference region of the HF matrix and epidermis, and the percentage of Ki-67/TUNEL-positive cells was determined.

MTCO1 = MTCO1 protein expression (immunoreactivity) in cultured hair follicles; type: cell-based, human
Experimental: as §1, §3, §2, §4, §5

TGFβ2 = TGFβ2 immunoreactivity in cultured hair follicles; type: cell-based, human
Experimental: as §1, §3, §2, §4, §5

hair growth [6] = details: mouse; cited from earlier work
hair growth [7] = details: monkey; cited from earlier work
human hair follicles [8] = details: cited from earlier work
[9] = cited from earlier work
alopecia areata = details: topical; cited from earlier work
[10] = tested on: outer root sheath cells, dermal papilla cells, and fibrous sheath cells of hair follicles; details: all these types of cells, significantly; cited from earlier work
human hair follicles [11] = details: physiological level of free T3; cited from earlier work
SKH-1 mice = details: topical; cited from earlier work
CD rats = details: topical; cited from earlier work
Stability = type: physicochemical
[12] = Penetration in human skin; type: in vitro ADME
[13] = occipital scalp HFs, person two, 6 days culture
[14] = person two, after 6 days, macroscopically and microscopically
[15] = person two, 100 pM, anagen HFs and all HFs

tyrosinase activity ([4]; person three, 100 pM, anagen HFs and all HFs): slightly upregulated | tyrosinase activity upregulation, significance ([4]; person three, 100 pM, only anagen HFs): significant
SMILES: Cc1cc(-n2ncc(=O)[nH]c2=O)cc(C)c1Oc1ccc(O)c(Cc2ccc(F)cc2)c1 [PF-277343]
hair shaft elongation ([1]; occipital scalp HFs, person three, 1 pM): slight (not significant) tendency towards inhibition | hair shaft elongation, overall comparison ([1]; summary of the examples): tendency of a slight inhibition | macroscopic HF assessment (hair cycle staging) ([2]; person three, 1 pM): prematurely induces catagen | quantitative hair cycle histomorphometry ([2]; person three, 1 pM and 100 pM): promoted premature catagen development | hair cycle staging, macroscopic and microscopic, overall comparison [2]: caused hair follicles to enter the catagen phase prematurely | melanisation ([3]; person three, 1 pM and 100 pM, all HFs): significantly decreased | melanin production ([3]; person three, 100 pM, only anagen HFs (significant)): strong reduction | melanin content, overall comparison [3]: decrease in melanin content | proliferation (Ki-67) of hair matrix keratinocytes ([5]; person three): did not show effects | apoptosis (TUNEL) ([5]; person three, 100 pM): slightly inhibited (not significant) | MTCO1 protein expression (MTCO1; person three): no significant change | TGFβ2 immunoreactivity (TGFβ2; person three, 100 pM concentration group): significantly reduced | efficacy in hair growth model (hair growth [6]): efficacious | efficacy in hair growth model (hair growth [7]): efficacious

SMILES: N[C@@H](Cc1cc(I)c(Oc2cc(I)c(O)c(I)c2)c(I)c1)C(=O)O [T4, 3,5,3′,5′-tetraiodo-L-thyronine]
anagen duration (human hair follicles [8]): prolong | apoptosis of hair matrix keratinocytes (Ki-67/TUNEL staining) (human hair follicles [8]): inhibited | hair matrix keratinocyte proliferation (Ki-67/TUNEL staining) (human hair follicles [8]): stimulated | hair shaft elongation in vitro (human hair follicles [8]): did not translate to a significantly altered hair shaft elongation | melanin synthesis in human hair follicles (human hair follicles [8]): stimulate

tyrosinase activity ([4]; person one, 100 pM group): upregulated | tyrosinase activity upregulation, significance ([4]; person one, 100 pM, all HFs): significant | tyrosinase activity [4, 15]: slightly upregulated | tyrosinase activity, overall ([4]; summary of the examples): upregulation
SMILES: CC(C)c1cc(Oc2c(Br)cc(NC(=O)CC(=O)O)cc2Br)ccc1O [eprotirome, 3-[[3,5-dibromo-4-[4-hydroxy-3-(1-methylethyl)phenoxy]phenyl]amino]-3-oxo-propanoic acid]
hair shaft elongation ([1]; occipital scalp HFs, person one, both doses (1 pM, 100 pM)): slightly stimulated | hair shaft elongation [1, 13]: did not significantly affect | duration of anagen, macroscopically ([2]; person one): no major effect | hair cycle histomorphometry ([2]; person one): clear anagen-prolonging effect | number of anagen HFs [2, 14]: significantly increased | number of catagen HFs [2, 14]: decreased | hair cycle staging, macroscopic and microscopic, overall comparison [2]: able to prolong anagen and to inhibit catagen development; also recorded: clearly prolongs anagen | melanin content ([3]; person one, 100 pM, anagen HFs and all HFs): slightly increased | melanin content increase, significance ([3]; person one, 100 pM, only anagen HFs): significant | melanisation [3, 15]: slightly increased | melanin content, overall comparison [3]: increased melanin content | proliferation of the hair matrix keratinocytes (Ki-67) ([5]; person one, 100 pM): increased proliferation | apoptosis (TUNEL) ([5]; person two): no change | proliferation (Ki-67) of hair matrix keratinocytes ([5]; person two): tendentially upregulated | proliferation of hair matrix keratinocytes, overall ([5]; summary of the examples): increased proliferation | MTCO1 immunoreactivity (MTCO1; person one): significantly up-regulates | MTCO1 protein expression (MTCO1; person two): no significant change | TGFβ2 immunoreactivity (TGFβ2; person one): significantly reduced | TGFβ2 immunoreactivity reduction, concentration dependence (TGFβ2; person one, 100 pM): strongest effect | TGFβ2 immunoreactivity (TGFβ2; person two, 1 pM concentration group): significantly reduced | expression of TGFβ2, overall (TGFβ2; summary of the examples): significant reduced expression | effects on the heart ([9]; clinical trial in humans): did not provoke detectable effects | safety and tolerability ([9]; clinical trial in humans): safe and well tolerated | lowering of total and LDL cholesterol levels ([9]; moderately overweight and hypercholesterolemic subjects): up to 40%

SMILES: N[C@@H](Cc1cc(I)c(Oc2ccc(O)c(I)c2)c(I)c1)C(=O)O [T3, 3,5,3′-triiodo-L-thyronine]
efficacy versus placebo (alopecia areata): not more effective than placebo | safety (alopecia areata): safe | proliferation and/or metabolism of hair follicle cell types [10]: stimulated | human hair survival in vitro (human hair follicles [11]): significantly enhanced | epidermal proliferation, dermal thickening, and hair growth (SKH-1 mice): stimulate | epidermal proliferation, dermal thickening, and hair growth (CD rats): stimulate | anagen duration (human hair follicles [8]): prolong | apoptosis of hair matrix keratinocytes (Ki-67/TUNEL staining) (human hair follicles [8]): inhibited | hair shaft elongation in vitro (human hair follicles [8]): did not translate to a significantly altered hair shaft elongation | melanin synthesis in human hair follicles (human hair follicles [8]): stimulate

SMILES: O=C(O)Cc1cc(I)c(Oc2ccc(O)c(I)c2)c(I)c1 [TRIAC, Triiodothyroacetic Acid]
hair shaft elongation (inhibition), significance ([1]; occipital scalp HFs, person two, 1 pM): significant effect | hair shaft elongation [1, 13]: slight inhibition | anagen (prolongation) [2, 14]: prolonged anagen | catagen development [2, 14]: inhibited catagen development | hair cycle staging, macroscopic and microscopic, overall comparison [2]: able to prolong anagen and to inhibit catagen development | hair follicle melanin content ([3]; person two, all HFs): No significant effects | melanin content, overall comparison [3]: no effects | tyrosinase activity ([4]; person two, all HFs): downregulated | tyrosinase activity downregulation, significance ([4]; person two, all HFs, 0.1 pM and 1 pM groups): significant | apoptosis (TUNEL) ([5]; person two): inhibited (not significant) | proliferation (Ki-67) of hair matrix keratinocytes ([5]; person two): slightly upregulated (not significant) | MTCO1 protein expression (MTCO1; person two): no significant change | TGFβ2 immunoreactivity reduction, significance (TGFβ2; person two, 1 pM and 100 pM concentration groups): significant effect | TGFβ2 immunoreactivity (TGFβ2; person two, all concentrations): reduced | stability (Stability): low stability | penetration in human skin [12]: inferior penetration
